The text below walks through data of patent US4544747A, “Quinoline carboxylic acid derivatives” (Otsuka Pharmaceutical Company, Limited, priority 1979, dated 1985).

Values after ≈ are worked out from the molar mass of the structure shown.

Data set [1] concerns Erwinia carotovora (soft-rot causing bacterium). As to the kind of experiment: Antimicrobial-activity test 3, incidence of soft rot on inoculated Japanese radish disks. Particulars: 28° C.
Another data set relates to Sclerotinia sclerotiorum. As to the kind of experiment: Antimicrobial-activity test 2, mycelial disc on agar plate, fungi (L: stem rot of eggplant). It counts as cell-based. Particulars: 48 h, complete inhibition of mycelial growth, 2 days, PDA medium, read-out: Minimum inhibitory concentration. The source says: L: Stem rot of eggplant (Sclerotinia sclerotiorum)
In a further data set the test system is Pseudomonas lachrymans. As to the kind of experiment: Antimicrobial-activity test 2, agar dilution plate method, bacteria (F: angular leaf spot of cucumber). It counts as cell-based. Particulars: 10^8 cells/ml, PDA medium, read-out: Minimum inhibitory concentration. The text has this:
F: Angular leaf spot of cucumber (Pseudomonas lachrymans)

The test system of another data set is Xanthomonas oryzae. As to the kind of experiment: microbe, parasite or virus in culture. It is filed as cell-based. Particulars: read-out: Minimum inhibitory concentration.
The subject of the next data set is Mycosphaerella melonis. Nature of the data set: Antimicrobial-activity test 2, mycelial disc on agar plate, fungi (M: gummy stem blight of melon). It is filed as cell-based. The following applies: 48 h, complete inhibition of mycelial growth, 2 days, PDA medium, read-out: Minimum inhibitory concentration. The source says: […] blight of melon (Mycosphaerella melonis)

The next data set deals with Erwinia carotovora. As to the kind of experiment: Antimicrobial-activity test 2, agar dilution plate method, bacteria (A: soft rot of vegetable). It counts as cell-based. The following applies: Pectobacterium carotovorum, 10^8 cells/ml, PDA medium, read-out: Minimum inhibitory concentration. The source says:
A: Soft rot of vegetable (Erwinia carotovora)

Data set [2] concerns Colletotrichum lagenarium. Nature of the data set: Antimicrobial-activity test 2, mycelial disc on agar plate, fungi (K: anthracnose of cucumber). Particulars: Colletotrichum orbiculare, 48 h, complete inhibition of mycelial growth, 2 days, PDA medium, read-out: Minimum inhibitory concentration. It is filed as cell-based. The source says: K: Anthracnose of cucumber (Colletotrichum lagenarium)

In a further data set the test system is Alternaria solani. Nature of the data set: Antimicrobial-activity test 2, mycelial disc on agar plate, fungi (N: early blight of tomato). The following applies: 48 h, complete inhibition of mycelial growth, 2 days, PDA medium, read-out: Minimum inhibitory concentration. It is filed as cell-based. The source says:
N: Early blight of tomato (Alternaria solani)

A further data set concerns Xanthomonas pruni. Nature of the data set: Antimicrobial-activity test 2, agar dilution plate method, bacteria (C: peach bacterial spot). Particulars: Xanthomonas arboricola, 10^8 cells/ml, PDA medium, read-out: Minimum inhibitory concentration. It is filed as cell-based. The text has this:
C: Peach bacterial spot (Xanthomonas pruni)

For a further data set, the system named is Phytophthora capsici. Nature of the data set: Antimicrobial-activity test 2, mycelial disc on agar plate, fungi (J: leaf blight of cucumber). It is filed as cell-based. The following applies: 48 h, complete inhibition of mycelial growth, 2 days, PDA medium, read-out: Minimum inhibitory concentration. The source says: J: Leaf blight of cucumber (Phytophthora capsici)

The subject of another data set is rats. As to the kind of experiment: Acute toxicity test, oral, rats. Particulars: rats (Wister strain, male).
The next data set relates to Phytophthora melonis. As to the kind of experiment: microbe, parasite or virus in culture. It is filed as cell-based. Particulars: 48 h, read-out: Minimum inhibitory concentration.
The next data set concerns Helminthosporium oryzae. Nature of the data set: Antimicrobial-activity test 2, mycelial disc on agar plate, fungi (H: Helminthosporium leaf spot). Particulars: Bipolaris oryzae, 48 h, read-out: Minimum inhibitory concentration.
The subject of a further data set is Pseudomonas solanacearum. As to the kind of experiment: microbe, parasite or virus in culture. It counts as cell-based. The following applies: Ralstonia solanacearum, read-out: Minimum inhibitory concentration.
Another data set deals with Pyrisularia oryzae. Nature of the data set: microbe, parasite or virus in culture. It counts as cell-based. The following applies: Pyricularia oryzae, 48 h, read-out: Minimum inhibitory concentration.
For the next data set, the system named is Xanthomonas citri. Nature of the data set: Antimicrobial-activity test 2, agar dilution plate method, bacteria (D: citrus canker). Particulars: read-out: Minimum inhibitory concentration.
The mark [3] stands for this setting: 15.6 μg/ml, test specimen 1, 24 hours.
[4] abbreviates: 15.6 μg/ml, test specimen 2, 24 hours.
Where [5] appears, read: 15.6 μg/ml, test specimen 3, 24 hours.
Setting [6] is: 15.6 μg/ml, test specimen 4, 24 hours.
Setting [7] is: 15.6 μg/ml, test specimen 5, 24 hours.
[8] abbreviates: 31.3 μg/ml, test specimen 1, 24 hours.
Setting [9] is: 31.3 μg/ml, test specimen 2, 24 hours.
[10] abbreviates: 31.3 μg/ml, test specimen 3, 24 hours.
The mark [11] stands for this setting: 31.3 μg/ml, test specimen 4, 24 hours.
Setting [12] is: 31.3 μg/ml, test specimen 5, 24 hours.
The mark [13] stands for this setting: 62.5 μg/ml, test specimen 1, 24 hours.
[14] abbreviates: 62.5 μg/ml, test specimen 2, 24 hours.
[15] abbreviates: 62.5 μg/ml, test specimen 3, 24 hours.
Setting [16] is: 62.5 μg/ml, test specimen 4, 24 hours.
[17] abbreviates: 62.5 μg/ml, test specimen 5, 24 hours.
[18] abbreviates: 125 μg/ml, test specimen 1, 24 hours.
Where [19] appears, read: 125 μg/ml, test specimen 2, 24 hours.
Where [20] appears, read: 125 μg/ml, test specimen 3, 24 hours.
[21] abbreviates: 125 μg/ml, test specimen 4, 24 hours.
Where [22] appears, read: 125 μg/ml, test specimen 5, 24 hours.

Consider `[H]/N=C(/N)N[C@H]1[C@H](O)[C@@H](O)[C@H](O[C@@H]2O[C@@H](C)[C@](O)(C=O)[C@H]2O[C@@H]2O[C@@H](CO)[C@H](O)[C@@H](O)[C@@H]2NC)[C@@H](N/C(N)=N\[H])[C@@H]1O` [Streptomycin, reference compound], for which the Disease incidence index in data set [1] (setting [3]) amounted to 3; in [1] (setting [4]) it was 3; in data set [1] (setting [5]), 3; in [1] (setting [6]), 3; in data set [1] (setting [7]), 3; in data set [1] (setting [8]) it was 2. The Disease incidence index in data set [1] (setting [9]) was 2; in [1] (setting [10]) it was 3; in data set [1] (setting [11]) it was 3; in data set [1] (setting [12]), 3; in data set [1] (setting [13]), 1 (0< ≤1/3); in [1] (setting [14]), 1 (0< ≤1/3). In addition, the Disease incidence index in data set [1] (setting [15]) is given as 2; in [1] (setting [16]) it was 2; in data set [1] (setting [17]) it was 2; in data set [1] (setting [18]) it was 1 (0< ≤1/3); in data set [1] (setting [19]), 1 (0< ≤1/3); in data set [1] (setting [20]), 1 (0< ≤1/3). The Disease incidence index in data set [1] (setting [21]) and in data set [1] (setting [22]) was 1 (0< ≤1/3) each time.
Turning to `CCn1cc(C(=O)O)c(=O)c2ccc(Cl)c(C)c21` [Compound 2, 1-ethyl-7-chloro-8-methyl-4-oxo-1,4-dihydroquinoline-3-carboxylic acid], the MIC in the data set on Sclerotinia sclerotiorum was determined as 100 µg/mL (≈ 376 µM); with Pseudomonas lachrymans it was 100 µg/mL (≈ 376 µM); in the data set on Xanthomonas oryzae, 0.2 µg/mL (≈ 0.753 µM); in the data set with Mycosphaerella melonis, 50 µg/mL (≈ 188 µM); in the data set with Erwinia carotovora, 0.2 µg/mL (≈ 0.753 µM); in [2], 100 µg/mL (≈ 376 µM). For the same compound, the MIC in the data set on Alternaria solani stood at 50 µg/mL (≈ 188 µM); in the data set on Xanthomonas pruni, 0.4 µg/mL (≈ 1.51 µM); with Phytophthora capsici, 25 µg/mL (≈ 94.1 µM); with Phytophthora melonis, 12.5 µg/mL (≈ 47 µM); in the data set with Helminthosporium oryzae, 50 µg/mL (≈ 188 µM); with Pseudomonas solanacearum it was 0.1 µg/mL (≈ 0.376 µM). Further, the MIC turned out to be 50 µg/mL (≈ 188 µM) with Pyrisularia oryzae and 0.1 µg/mL (≈ 0.376 µM) with Xanthomonas citri. Besides, the Disease incidence index is 0 (0) in [1] (setting [3]); 1 (0< ≤1/3) in data set [1] (setting [4]); 1 (0< ≤1/3) in data set [1] (setting [5]); 1 (0< ≤1/3) in [1] (setting [6]); 1 (0< ≤1/3) in data set [1] (setting [7]); 0 (0) in data set [1] (setting [8]). In addition, the Disease incidence index in data set [1] (setting [9]) is given as 0 (0); in [1] (setting [10]), 0 (0); in data set [1] (setting [11]), 1 (0< ≤1/3); in data set [1] (setting [12]), 1 (0< ≤1/3); in [1] (setting [13]) it was 0 (0); in [1] (setting [14]), 0 (0). The Disease incidence index is on record as 0 (0) in data set [1] (setting [15]); 0 (0) in [1] (setting [16]); 1 (0< ≤1/3) in [1] (setting [17]); 0 (0) in [1] (setting [18]); 0 (0) in data set [1] (setting [19]); 0 (0) in data set [1] (setting [20]). The Disease incidence index in data set [1] (setting [21]) is on record as 0 (0); in [1] (setting [22]), 1 (0< ≤1/3). Also, in the data set on rats, the “estimated LD50” value was “not less than 500 mg/kg”.
Regarding `CCn1cc(C(=O)O)c(=O)c2ccc(N3CCNCC3)c(C)c21` [Compound 1, 1-Ethyl-7-(1-piperazinyl)-8-methyl-4-oxo-1,4-dihydroquinoline-3-carboxylic acid], in the data set on rats, the “estimated LD50” value is “not less than 500 mg/kg”.
